{
  "source": "patent US20070123426A1",
  "about": "“Mixtures” (BASF Aktiengesellschaft, priority 2005, published 2007)",
  "test_in_all_cases": "greenhouse post-emergence herbicidal test",
  "type_in_all_cases": "in vivo",
  "key": {"HELAN (Helianthus annua)": {"test_system": "HELAN (Helianthus annua)", "conditions": "HELAN; a) 6.25 g/ha, MSO or COC 1.25%, scale 0-100", "excerpt": "(§1) The culture vessels used were plastic flowerpots filled, as substrate, with sandy loam comprising about 3% of humus. The seeds of the test plants were sown separated according to species.\n(§2) For the post-emergence treatment, the test plants were initially cultivated to a height of 3-17 cm according to their habit and only then treated with the active compounds, which had been suspended or emulsified in water. To this end, the test plants were either sown directly and cultivated in the same vessels, or they were initially cultivated separately as seedlings and transplanted into the test vessels a few days prior to the treatment. According to the species, the plants were kept at temperatures of from 15° C. to 25° C. or from 20 to 35° C. The trial period extended over 3 weeks. During this time the plants were tended and their response to the individual treatments was evaluated.\n(§3) The application in the greenhouse was carried out at a spray liquor application rate of 200 l/ha."}, "SOLNI (Solanum nigrum)": {"test_system": "SOLNI (Solanum nigrum)", "conditions": "SOLNI; a) 3.125 g/ha, MSO or COC 1.25%, scale 0-100", "excerpt": "as §1, §2, §3"}, "[1]": {"test_system": "ECHCG (Echinochloa crus-galli)", "conditions": "MSO or COC 1.25%, scale 0-100", "excerpt": "as §1, §2, §3"}, "AMBEL (Ambrosia elatior)": {"test_system": "AMBEL (Ambrosia elatior)", "conditions": "AMBEL; a) 3.125 g/ha, MSO or COC 1.25%, scale 0-100", "excerpt": "as §1, §2, §3"}, "[2]": {"test_system": "PANDI (Panicum dichotomiflorum)", "conditions": "PANDI; a) 25 g/ha, MSO or COC 1.25%, scale 0-100", "excerpt": "as §1, §2, §3"}, "SETVI (Setaria viridis)": {"test_system": "SETVI (Setaria viridis)", "conditions": "SETVI; a) 12.5 g/ha, MSO or COC 1.25%, scale 0-100", "excerpt": "as §1, §2, §3"}, "[3]": {"test_system": "XANST (Xanthium strumarium)", "conditions": "XANST; a) 12.5 g/ha, MSO or COC 1.25%, scale 0-100", "excerpt": "as §1, §2, §3"}, "SORBI (Sorghum bicolor)": {"test_system": "SORBI (Sorghum bicolor)", "conditions": "SORBI; a) 25 g/ha, MSO or COC 1.25%, scale 0-100", "excerpt": "as §1, §2, §3"}, "[4]": {"test_system": "PANMI (Panicum milliaceum)", "conditions": "PANMI; a) 12.5 g/ha, MSO or COC 1.25%, scale 0-100", "excerpt": "as §1, §2, §3"}},
  "data": [
    {"smiles": "Cc1c(C(=O)c2cnn(C)c2O)ccc(S(C)(=O)=O)c1C1=NOCC1", "note": "[a)]", "values": [
      {"measurement": "observed effect", "setting": "HELAN (Helianthus annua)", "result": 30},
      {"measurement": "observed effect", "setting": "SOLNI (Solanum nigrum)", "result": 30},
      {"measurement": "observed effect", "setting": "[1]; ECHCG; a) 12.5 g/ha", "result": 0},
      {"measurement": "observed effect", "setting": "[1]; ECHCG; a) 25 g/ha", "result": 0},
      {"measurement": "observed effect", "setting": "AMBEL (Ambrosia elatior)", "result": 60},
      {"measurement": "observed effect", "setting": "[2]", "result": 0},
      {"measurement": "observed effect", "setting": "SETVI (Setaria viridis)", "result": 60},
      {"measurement": "observed effect", "setting": "[3]", "result": 65},
      {"measurement": "observed effect", "setting": "SORBI (Sorghum bicolor)", "result": 10},
      {"measurement": "observed effect", "setting": "[4]", "result": 75}
    ]}
  ]
}
